Results from patent US20250352530A1, “METHOD AND COMPOSITION FOR TREATING LUNG DISEASES” (MannKind Corporation, priority 2024, published 2025).

Assay: Pharmacokinetic study in rats, pulmonary insufflation versus intravenous injection
Type: in vivo, male Sprague Dawley rats
Settings: 0.8 mg/kg single dose; lung samples 10-240 minutes post administration; FIG. 5
Experimental: Pharmacokinetic studies in rats with Compound I crystalline composite (XC) dry powders—Insufflation studies were performed in rats to deliver doses of dry powders of Compound I, a protein kinase antagonist. The study was performed to determine the pharmacokinetics profile of Compound I dry powders made by the process as described above following pulmonary insufflation, or intravenous injection of a single dose of the composition administered in solution to male Sprague Dawley (Charles River Laboratories) adult rats, weighing between 200 g and 250 g at the time of the study. Dry powder comprising 22.1 wt % actual drug content were used and tested at 1 mg/ml in solution to deliver a dose of 0.8 mg/kg to 18 rats in each study group. Rats acclimatized and anesthetized prior to experimentation. Lung and blood samples were taken from the rats at 10, 20, 30, 120, and 240 minutes, post drug administration.

Compound: Cc1cccc(-n2ncc(C)c2-c2cc3cnccc3s2)n1 [Compound I, 2-[4-methyl-1-(6-methylpyridin-2-yl)-1H-pyrazol-5-yl]thieno-[3,2-c]pyridine]
- content of Compound I in rat lung, insufflation versus IV injection: a higher content of Compound I was detected in rat lung after insufflation versus IV injection for a longer period of time
